Measured values: PubChem BioAssay AID1963983 (Molecular Pharmacology Branch, DTP, NCI, 2024)
Each block holds one molecule with its values, some of them ahead of it.

System: 186277-243-T-J2-PDC multi-cell spheroid viability
Experiment: Anticancer human tumor 186277-243-T-J2-PDC patient-derived colon adenocarcinoma cell line growth inhibition [PI3K]
Details: for IC50: curve of first compound; for viability, T/C: stronger effect = lower value
Outline: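 Stroma-containing spheroids: tumor line, pooled-donor HUVEC, hMSC. Treatments: targeted agents with PI3K inhibitors. Dosing: clinically relevant, half-log spacing, 10 microM ceiling without known Cmax. Read-out: cell viability.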

[1] = second compound 0.0316 µM, first compound 0.0316 µM
[2] = second compound 0.0316 µM, first compound 0.1 µM
[3] = second compound 0.1 µM, first compound 0.0316 µM
[4] = second compound 0.1 µM, first compound 0.1 µM
[5] = second compound 0.316 µM, first compound 0.0316 µM
[6] = second compound 0.316 µM, first compound 0.1 µM
[7] = second compound 1 µM, first compound 0.0316 µM
[8] = second compound 1 µM, first compound 0.1 µM
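Note: spheroids exposed to compounds for seven days before viability reading.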
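Throughout, for viability, T/C: 100% = DMSO vehicle control viability.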

- IC50 (second compound 0.0316 µM): > 100 nM
- IC50 (second compound 0.1 µM): > 100 nM
- IC50 (second compound 0.316 µM): > 100 nM
- IC50 (second compound 1 µM): > 100 nM
- IC50 (second compound 3.16 µM): > 100 nM
- IC50 (second compound 10 µM): > 100 nM
Compound: CC(=O)c1c(C)c2cnc(Nc3ccc(N4CCNCC4)cn3)nc2n(C2CCCC2)c1=O + CC(Nc1ncnc2nc[nH]c12)c1cc2cccc(Cl)c2c(=O)n1-c1ccccc1
- viability, T/C (second compound 0.0316 µM, first compound 0.000316 µM): 87.2%
- viability, T/C (second compound 0.0316 µM, first compound 0.001 µM): 96.8%
- viability, T/C (second compound 0.0316 µM, first compound 0.00316 µM): 114%
- viability, T/C (second compound 0.0316 µM, first compound 0.01 µM): 97.2%
- viability, T/C [1]: 109%
- viability, T/C [2]: 113%
- viability, T/C (second compound 0.1 µM, first compound 0.000316 µM): 87.2%
- viability, T/C (second compound 0.1 µM, first compound 0.001 µM): 91.5%
- viability, T/C (second compound 0.1 µM, first compound 0.00316 µM): 99%
- viability, T/C (second compound 0.1 µM, first compound 0.01 µM): 96%
- viability, T/C [3]: 116%
- viability, T/C [4]: 133%
- viability, T/C (second compound 0.316 µM, first compound 0.000316 µM): 96.9%
- viability, T/C (second compound 0.316 µM, first compound 0.001 µM): 97.2%
- viability, T/C (second compound 0.316 µM, first compound 0.00316 µM): 97.7%
- viability, T/C (second compound 0.316 µM, first compound 0.01 µM): 107%
- viability, T/C [5]: 118%
- viability, T/C [6]: 127%
- viability, T/C (second compound 1 µM, first compound 0.000316 µM): 96.3%
- viability, T/C (second compound 1 µM, first compound 0.001 µM): 96.8%
- viability, T/C (second compound 1 µM, first compound 0.00316 µM): 107%
- viability, T/C (second compound 1 µM, first compound 0.01 µM): 107%
- viability, T/C [7]: 122%
- viability, T/C [8]: 118%
- viability, T/C (second compound 3.16 µM, first compound 0.000316 µM): 98.2%
- viability, T/C (second compound 3.16 µM, first compound 0.001 µM): 104%
- viability, T/C (second compound 3.16 µM, first compound 0.00316 µM): 89.1%
- viability, T/C (second compound 3.16 µM, first compound 0.01 µM): 110%
- viability, T/C (second compound 3.16 µM, first compound 0.0316 µM): 99.5%
- viability, T/C (second compound 3.16 µM, first compound 0.1 µM): 119%
- viability, T/C (second compound 10 µM, first compound 0.000316 µM): 84%
- viability, T/C (second compound 10 µM, first compound 0.001 µM): 93.1%
- viability, T/C (second compound 10 µM, first compound 0.00316 µM): 89.7%
- viability, T/C (second compound 10 µM, first compound 0.01 µM): 79.3%
- viability, T/C (second compound 10 µM, first compound 0.0316 µM): 100%
- viability, T/C (second compound 10 µM, first compound 0.1 µM): 97.9%

- IC50 (second compound 0.00316 µM): > 10000 nM
- IC50 (second compound 0.01 µM): > 10000 nM
- IC50 (second compound 0.0316 µM): > 10000 nM
- IC50 (second compound 0.1 µM): < 31.6 nM
- IC50 (second compound 0.316 µM): < 31.6 nM
- IC50 (second compound 1 µM): < 31.6 nM
Compound: CNC(=O)c1ccc(N2C(=S)N(c3ccc(C#N)c(C(F)(F)F)c3)C(=O)C2(C)C)cc1F + COc1c(OCCCN2CCOCC2)ccc2c3n(c(=NC(=O)c4cnc(N)nc4)nc12)CCN3
- viability, T/C (second compound 0.00316 µM, first compound 0.0316 µM): 110%
- viability, T/C (second compound 0.00316 µM, first compound 0.1 µM): 113%
- viability, T/C (second compound 0.00316 µM, first compound 0.316 µM): 111%
- viability, T/C (second compound 0.00316 µM, first compound 1 µM): 88.2%
- viability, T/C (second compound 0.00316 µM, first compound 3.16 µM): 112%
- viability, T/C (second compound 0.00316 µM, first compound 10 µM): 107%
- viability, T/C (second compound 0.01 µM, first compound 0.0316 µM): 98.8%
- viability, T/C (second compound 0.01 µM, first compound 0.1 µM): 121%
- viability, T/C (second compound 0.01 µM, first compound 0.316 µM): 103%
- viability, T/C (second compound 0.01 µM, first compound 1 µM): 94.8%
- viability, T/C (second compound 0.01 µM, first compound 3.16 µM): 112%
- viability, T/C (second compound 0.01 µM, first compound 10 µM): 115%
- viability, T/C [1]: 88.9%
- viability, T/C [2]: 85.6%
- viability, T/C (second compound 0.0316 µM, first compound 0.316 µM): 81.3%
- viability, T/C (second compound 0.0316 µM, first compound 1 µM): 81.7%
- viability, T/C (second compound 0.0316 µM, first compound 3.16 µM): 95.3%
- viability, T/C (second compound 0.0316 µM, first compound 10 µM): 73.4%
- viability, T/C [3]: 23.3%
- viability, T/C [4]: 20.2%
- viability, T/C (second compound 0.1 µM, first compound 0.316 µM): 21.5%
- viability, T/C (second compound 0.1 µM, first compound 1 µM): 17.8%
- viability, T/C (second compound 0.1 µM, first compound 3.16 µM): 19.6%
- viability, T/C (second compound 0.1 µM, first compound 10 µM): 22.7%
- viability, T/C [5]: 6.01%
- viability, T/C [6]: 6.73%
- viability, T/C (second compound 0.316 µM, first compound 0.316 µM): 4.24%
- viability, T/C (second compound 0.316 µM, first compound 1 µM): 5.77%
- viability, T/C (second compound 0.316 µM, first compound 3.16 µM): 7.13%
- viability, T/C (second compound 0.316 µM, first compound 10 µM): 5.44%
- viability, T/C [7]: 3.23%
- viability, T/C [8]: 2.22%
- viability, T/C (second compound 1 µM, first compound 0.316 µM): 3.19%
- viability, T/C (second compound 1 µM, first compound 1 µM): 1.9%
- viability, T/C (second compound 1 µM, first compound 3.16 µM): 2.85%
- viability, T/C (second compound 1 µM, first compound 10 µM): 4.06%
